Reference: US9309229B2, “Crystalline forms of 5-chloro-N2-(2-isopropoxy-5-methyl-4-piperidin-4-yl-phenyl)-N4-[2-(propane-2-sulfonyl)-phenyl]-pyrimidine-2, 4-diamine” (Novartis AG, priority 2010, dated 2016)
In brackets after ≈: the same amount, converted by molar mass.

Tests used:
Type in all cases: physicochemical
[1] = pH of 1% suspension in water
[2] = Hygroscopicity (moisture uptake at relative humidity)
[3] = Stability of the form in pH 1 (0.1N HCl) solution; settings: pH 1 (0.1N HCl) solution over 72 hour
[4] = Solubility of crystalline form A

- pH of 1% suspension in water [1]: 6.86
- hygroscopicity ([2]; 84% relative humidity (RH)): relatively non-hygroscopic
- moisture uptake ([2]; 93% RH): minor increase in moisture uptake
- solubility ([4]; in water): 0.21 mg/mL (≈ 0.376 mM)
- solubility ([4]; organic solvent or mixture, in methanol (organic solvent)): 40 mg/mL (≈ 71.7 mM)
- solubility ([4]; pH 1 solution (0.1N HCl), simulated gastric fluid, in pH 1): 11 mg/mL (≈ 19.7 mM)
SMILES: Cc1cc(Nc2ncc(Cl)c(Nc3ccccc3S(=O)(=O)C(C)C)n2)c(OC(C)C)cc1C1CCNCC1 [Form A, 5-Chloro-N2-(2-isopropoxy-5-methyl-4-piperidin-4-yl-phenyl)-N4-[2-(propane-2-sulfonyl)-phenyl]-pyrimidine-2,4-diamine]
- conversion of form in solution [3]: converted to a hydrochloride salt (non-stoichiometric)
